Measurements from patent US20100330588A1, “METHOD TO QUANTIFY METHYLTRANSFERASE ACTIVITY” (Utah State University, priority 2009, published 2010).

Tested on: Histone H3.3
Assay: methylation of Histone H3.3 by PRMT6 fusion proteins, reverse phase resin method of scheme 2
Assay type: biochemical
Conditions: 500 nM enzyme; 1.7 μM Histone H3.3; 37° C.
Method: Assays were performed at 37° C., in a final volume of 125 μl. Each assay contained 1.0 μM unlabeled S-adenosyl-L-methionine (AdoMet), […] S-adenosyl-L-[methyl-^3H]methionine (specific activity 67.3 Ci/mmol, 0.55 μCi/μl, Perkin Elmer), 100 mM Hepes, 0.38 μM bovine serum albumin (BSA), 10% glycerol, 10 nM AdoHcy Nucleosidase (MTAN), and 1.7 μM protein substrate; pH of reaction was 7.6. […] Samples (10 μL) were removed at specified times and were analyzed using either SDS-PAGE or methods related to the present disclosure, as discussed below.
A 10 µL aliquot of the reaction mixture was transferred to 6 μl of sample preparation buffer (8 M Guanidine-HCL in 2.5% trifluoroacetic acid (TFA)), making the final concentrations 3 M Guanidine-HCL and 0.94% TFA in the mixture. Guanidine-HCl denatures the protein and TFA makes the reaction very acidic so that PRMT activity is quenched. […] Eluate was dispensed into 20 ml of scintillation cocktail (Fisher Scientific) and counted in a LSC.
Referring now to FIG. 4, there is shown the comparison of the methylation activities of GST-PRMT6 and His-PRMT6 using the method disclosed in scheme 2. […] The reactions were processed and counted in scintillation cocktail.

His-PRMT6: His-tagged PRMT6 protein arginine methyltransferase expressed in E. coli BL21 and purified
fold higher methylation activity compared to GST-PRMT6: 5 fold
